In patent US20120027720A1, “PEPTIDE CONJUGATES” (priority 2008, published 2012):
Where no end group is shown, it is not given here. [ ]: non-standard residue; d: D form. Phe(4-CN) = N#Cc1ccc(C[C@H](N)C(=O)O)cc1; dAllylGly = C=CC[C@@H](N)C(=O)O; Cha = N[C@@H](CC1CCCCC1)C(=O)O; AllylGly = C=CC[C@H](N)C(=O)O; hSer = N[C@@H](CCO)C(=O)O; Nle = CCCC[C@H](N)C(=O)O; Pra = C#CC[C@H](N)C(=O)O; Nva = CCC[C@H](N)C(=O)O

Assays:
[1] = system: CaCo2 monolayers; assay: Epithelial flux of Lucifer Yellow through cell monolayer; format: cell-based; design: key to Enhanced LY permeability: + indicates an enhancement of the permeability of the tight junctions were observed; − indicates no enhancement of permeability was observed; settings: Lucifer Yellow flux, Caco-2 monolayer
Excerpt: (§1) Agonists of tight junctions can be identified by their ability to enhance the flux of compounds (e.g. ions, Lucifer Yellow) through a cell monolayer that comprises tight junctions; or by their ability to reduce TEER across a cell monolayer that comprises tight junctions. Treatment of CaCo2 monolayers with peptide FCIGRL (SEQ ID NO: 1) led to a 51-fold enhancement of Lucifer Yellow permeability through CaCo2 monolayers compared to vehicle alone. Treatment of CaCo2 monolayers with peptide FCIGRL led to a 16-fold decrease in TEER across CaCo2 monolayers compared to vehicle alone.
(§2) Determination of TEER and Lucifer Yellow Flux
(§3) Prepare Modified Hank's Balanced Salt Solution (MHBSS) by obtaining 1 L bottle of HBSS removing 10 ml of HBSS and replacing it with 10 ml HEPES buffer pH 7.0. Adjust pH to 7.4±0.1 using concentrated NaOH (10N).
(§4) Remove Caco-2 cells from incubator, grown on 12-well, […], polycarbonate Transwell® filters (Corning) and record passage#, date cells seeded and age in days.
(§5) Aspirate cell culture medium from both the apical (AP) and basolateral (BL) compartments, replacing with 0.5 ml and 1.5 ml of MHBSS, respectively. Incubate cells at 37° C. for 30 minutes.
(§6) Aspirate solution from the apical compartment of each filter (n=3 per condition) and replace with 0.5 ml of control and test solutions containing Lucifer Yellow and test compound if appropriate.
(§7) Place all plates into incubator set at 37° C. (±0.2), 50 RPM (±5) for a total of 180 minutes.
At t=60, 120 and 180 minutes remove 100 μl from each basolateral compartment and place it in a 96-well plate for Lucifer Yellow analysis, replace with 100 μl of MHBSS.
Make a Lucifer Yellow standard curve with the following dilutions (7500 μM, 3750 μM, 750 μM, 375 μM, 75 μM, 37.5 μM, 7.5 μM, 3.75 μM, 0.75 μM) and pipette […] of each into a 96-well plate except for the first three standards mentioned above which require a 1:10 dilutions prior to transferring to the 96-well plate.
Harvest the remaining start solutions and what is left in each apical compartment into 1.5 ml vials. Freeze at −20° C. for future analysis.
Analyze each 96-well plate in a Tecan Spectra Fluor Plus using Magellan at 485 and 535 nm.
(§8) Cells: Caco-2 cells passage 40-60 grown on Transwell® plates for 21-28 days
(§9) Culture Medium: DMEM supplemented with 10% fetal bovine serum, 1% NEAA, 1% Penn/Strep
(§10) Buffers: Hank's Balanced Salt Solution (HBSS) without calcium and magnesium
(§11) Flasks: 100×20 mm Tissue culture dish Falcon.
(§12) Plates: 12 well polycarbonate Transwell® filters; 0.3 uM pore size

[2] = system: CaCo2 monolayers; assay: Trans Epithelial Electric Resistance (TEER) across cell monolayer; format: cell-based; design: key to Reduced TEER: + indicates an enhancement of the permeability of the tight junctions were observed; − indicates no enhancement of permeability was observed; settings: Caco-2 monolayer
Excerpt: as §1, §2, §3, §4, §5
Using the MilliCell®-ERS instrument (Millipore), measure and record the transepithelial electrical resistance (TEER) across each filter and record.
as §6, §7
At t=30, 60, 120 and 180 minutes, measure and record the transepithelial electrical resistance (TEER) across each filter using the MilliCell-ERS instrument.
as §8, §9, §10, §11, §12

| Substance | Enhanced LY permeability [1] | Reduced TEER [2] |
| --- | --- | --- |
| 145 (H-F[dC]IGRL-OH; also: peptide conjugate) [compound 145] | + | + |
| 204 (F[AllylGly]FGRL-NH2; N-terminus assumed; SMILES C=CC[C@H](NC(=O)[C@@H](N)Cc1ccccc1)C(=O)N[C@@H](Cc1ccccc1)C(=O)NCC(=O)N[C@@H](CCCNC(=N)N)C(=O)N[C@@H](CC(C)C)C(N)=O) [compound 204] | + | = |
| 78 (Ac-ACIGRA; not fully specified; printed as Ac-Ala-Cys-Ile-Gly-Arg-Ala) [compound 78] | + | − |
| 205 (F[AllylGly]TGRL-NH2; N-terminus assumed; SMILES C=CC[C@H](NC(=O)[C@@H](N)Cc1ccccc1)C(=O)N[C@H](C(=O)NCC(=O)N[C@@H](CCCNC(=N)N)C(=O)N[C@@H](CC(C)C)C(N)=O)[C@@H](C)O) [compound 205] | − | − |
| 39 ([dL][dR]GI[dC]F; not fully specified) [compound 39] | − | − |
| 135 (FVIGRL; also: peptide conjugate) [compound 135] | + | + |
| 191 (E[AllylGly]IGRL-NH2; N-terminus assumed; SMILES C=CC[C@H](NC(=O)[C@@H](N)CCC(=O)O)C(=O)N[C@H](C(=O)NCC(=O)N[C@@H](CCCNC(=N)N)C(=O)N[C@@H](CC(C)C)C(N)=O)[C@@H](C)CC) [compound 191] | − | − |
| 199 (H[AllylGly]IGRL-NH2; N-terminus assumed; SMILES C=CC[C@H](NC(=O)[C@@H](N)Cc1c[nH]cn1)C(=O)N[C@H](C(=O)NCC(=O)N[C@@H](CCCNC(=N)N)C(=O)N[C@@H](CC(C)C)C(N)=O)[C@@H](C)CC) [compound 199] | − | − |
| 188 (L[AllylGly]IGRL-NH2; N-terminus assumed; SMILES C=CC[C@H](NC(=O)[C@@H](N)CC(C)C)C(=O)N[C@H](C(=O)NCC(=O)N[C@@H](CCCNC(=N)N)C(=O)N[C@@H](CC(C)C)C(N)=O)[C@@H](C)CC) [compound 188] | − | − |
| 198 (A[AllylGly]IGRL-NH2; N-terminus assumed; SMILES C=CC[C@H](NC(=O)[C@H](C)N)C(=O)N[C@H](C(=O)NCC(=O)N[C@@H](CCCNC(=N)N)C(=O)N[C@@H](CC(C)C)C(N)=O)[C@@H](C)CC) [compound 198] | − | − |
| 146 (H-F[Nva]IGRL-OH; not fully specified; printed as H-Phe-Nva-Ile-Gly-Arg-Leu-OH; also: peptide conjugate, Xaa: 'may be' norvaline) [compound 146] | − | − |
| 76 (WCIGRL; not fully specified; printed as Trp-Cys-Ile-Gly-Arg-Leu) [compound 76] | + | + |
| 168 (F[L‑4,5‑dehydro‑leucine]IGRL; not fully specified; also: peptide conjugate) [compound 168] | + | − |
| 147 (H-F[Nle]IGRL-OH; not fully specified; printed as H-Phe-Nle-Ile-Gly-Arg-Leu-OH; also: peptide conjugate, Xaa: 'may be' L-norleucine) [compound 147] | − | − |
| 159 (F[L‑(R,S)‑3,4‑cis‑methanoproline]IGRL; not fully specified; also: peptide conjugate) [compound 159] | − | + |
| 51 (H-[dA]CIGRG-OH; not fully specified) [compound 51] | + | + |
| 36 ([dL]RGICF; not fully specified; printed as D-Leu-Arg-Gly-Ile-Cys-Phe) [compound 36] | − | − |

| Substance | Enhanced LY permeability [1] | Reduced TEER [2] |
| --- | --- | --- |
| 164 (FL[dI]GRL-NH2; also: peptide conjugate) [compound 164] | − | − |
| 195 (D[AllylGly]IGRL-NH2; N-terminus assumed; SMILES C=CC[C@H](NC(=O)[C@@H](N)CC(=O)O)C(=O)N[C@H](C(=O)NCC(=O)N[C@@H](CCCNC(=N)N)C(=O)N[C@@H](CC(C)C)C(N)=O)[C@@H](C)CC) [compound 195] | − | − |
| 176 (F[Pra]IGR-NH2; N-terminus assumed; SMILES C#CC[C@H](NC(=O)[C@@H](N)Cc1ccccc1)C(=O)N[C@H](C(=O)NCC(=O)N[C@@H](CCCNC(=N)N)C(N)=O)[C@@H](C)CC) [compound 176] | − | − |
| 183 (F[AllylGly]IGRL-OH; N-terminus assumed; SMILES C=CC[C@H](NC(=O)[C@@H](N)Cc1ccccc1)C(=O)N[C@H](C(=O)NCC(=O)N[C@@H](CCCNC(=N)N)C(=O)N[C@@H](CC(C)C)C(=O)O)[C@@H](C)CC) [compound 183] | + | + |
| 156 (F[Cha]IGRL-OH; also: peptide conjugate) [compound 156] | − | − |
| 185 (F[dAllylGly]IGR-NH2; N-terminus assumed; SMILES C=CC[C@@H](NC(=O)[C@@H](N)Cc1ccccc1)C(=O)N[C@H](C(=O)NCC(=O)N[C@@H](CCCNC(=N)N)C(N)=O)[C@@H](C)CC) [compound 185] | − | − |
| 21 ([dL]RG[dI][dC][dF]; not fully specified) [compound 21] | − | − |
| 139 (FLIGR-NH2; also: peptide conjugate) [compound 139] | − | − |
| 172 (F[hSer][dI]GRL; not fully specified; also: peptide conjugate, Xaa: 'may be' homoserine) [compound 172] | − | − |
| 173 ([Phe(4-CN)]FIGRL; also: peptide conjugate, Xaa: 'may be' L-4-cyano-phenylalanine) [compound 173] | − | − |
| 28 (LRGIC[dF]; not fully specified; printed as Leu-Arg-Gly-Ile-Cys-D-Phe) [compound 28] | − | − |
| 4 (FCAGRL; not fully specified; printed as Phe-Cys-Ala-Gly-Arg-Leu) [compound 4] | − | − |
| 201 (R[AllylGly]IGRL-NH2; N-terminus assumed; SMILES C=CC[C@H](NC(=O)[C@@H](N)CCCNC(=N)N)C(=O)N[C@H](C(=O)NCC(=O)N[C@@H](CCCNC(=N)N)C(=O)N[C@@H](CC(C)C)C(N)=O)[C@@H](C)CC) [compound 201] | − | − |
| 101 (H-FCIGR[Cha]-OH; SMILES CC[C@H](C)[C@H](NC(=O)[C@H](CS)NC(=O)[C@@H](N)Cc1ccccc1)C(=O)NCC(=O)N[C@@H](CCCNC(=N)N)C(=O)N[C@@H](CC1CCCCC1)C(=O)O) [compound 101] | + | + |
| 132 (FNIGRL; also: peptide conjugate) [compound 132] | − | + |
| 220 (F[AllylGly]ITRL-NH2; N-terminus assumed; SMILES C=CC[C@H](NC(=O)[C@@H](N)Cc1ccccc1)C(=O)N[C@H](C(=O)N[C@H](C(=O)N[C@@H](CCCNC(=N)N)C(=O)N[C@@H](CC(C)C)C(N)=O)[C@@H](C)O)[C@@H](C)CC) [compound 220] | − | − |
